Assay results: article PMC8592419 (PLoS ONE, 2021)
Where a SMILES comes first, the peptide text is derived from it.

Assays:
[1] = system: sixteen clinical Mab isolates; test: 24-hour bactericidal activity assay, summary over isolates; type: cell-based, Mycobacterium abscessus; conditions: majority of the tested strains (10/16 isolates); equivalent of <50 μg/ml
Method: (§1) Briefly, serial dilutions of the AMPs were prepared with potassium phosphate buffer (PPB) from the concentration range of 3.125 to 400 μg/ml and then 50 μl of each dilution were added to each 96-well plate. Colonies of the isolate were suspended and then further diluted in Mueller-Hinton broth to obtain a final concentration of 1×10^3 CFU/ml (optimized according to the available AMP stock concentration). Fifty microliters of this inoculum were added to each well of the plates. The plates were incubated for 3 days at 37°C. Plain media and bacterial suspensions without AMPs were used as negative and positive controls. The MIC values were read and recorded. All assays were performed in duplicate and two independent experiments.
Potential AMPs from the screening assays were subjected to determine the 24-hour bactericidal activity assays (corresponding to the common time of administration) with sixteen clinical Mab isolates using the protocol as described above. To observe the early antimicrobial activities, the plates were incubated for 24 h at 37°C. The samples from each well were further diluted in 0.05% Tween 80 and inoculated on Mueller-Hinton agar. After incubation for 3 days at 37°C, the colony-forming units (CFUs) were counted and calculated for the percentage of killing using the following formula: % killing = 1 - (CFU sample/ CFU control) ×100.

[2] = system: human red blood cells (RBCs); test: Hemolytic toxicity test; type: cell-based; conditions: for Hemolytic activities (%hemolysis): human RBCs, 1 h at 37°C, mean±SD of duplicates, two independent experiments
Method: For the hemolytic toxicity test, red blood cells (RBCs) from fresh blood samples of healthy volunteers were obtained by centrifugation at 1,000 rpm for 5 min. The cells were washed three times with sterile phosphate buffered saline (PBS) and adjusted into 1×10^8 cells/ml. AMPs were diluted with PPB in ranging from 6.25 to 400 μg/ml. Fifty microliters of the RBC suspensions and 50 μl of AMP solutions were added to 1.5 ml sterile microtubes, incubated for 1 h at 37°C and then centrifuged at 1,000 rpm for 5 min. The supernatants were transferred to new 96-well microtiter plates for measurement of the absorbance at 540 nm using a microplate reader. RBC suspensions treated with 2% (v/v) Triton X-100 and PBS solution were used as positive and negative controls. The percentages of hemolysis were calculated using the following formula: % of RBC lysis = 100 × [(Test—PBS) / (Positive control—PBS)]. All assays were performed in duplicate and two independent experiments.

[3] = system: M. abscessus clinical isolate MAB14; test: microbe, parasite or virus in culture; type: cell-based, M. abscessus subsp. massiliense; conditions: MAB14
Method: (§2) Mab suspensions at a 5×10^5 CFU/ml final concentration were added to each well and incubated for 3 days and 14 days at 37°C. MIC values were defined when the percent killing of CFUs of more than 90% were compared to the media controls without AMPs or drugs. The fraction inhibitory concentration index (FICI) was calculated using the following formula: FICI = [C(MIC^A)/MIC^A] + [C(MIC^B)/MIC^B]. […] For interpretation, FICI ≤ 0.5 was interpreted as synergism, FICI >0.5–1.0 was interpreted as additive, FICI >1.0–4.0 was interpreted as indifferent and FICI >4.0 was interpreted as antagonism.

[4] = system: M. abscessus clinical isolate MAB12; test: microbe, parasite or virus in culture; type: cell-based, M. abscessus subsp. massiliense; conditions: MAB12
Method: as §2

[5] = system: M. abscessus clinical isolate MAB13; type: cell-based, M. abscessus subsp. massiliense; conditions: 3 days at 37°C
Method: as §1
(§3) For the in vitro antimicrobial susceptibility, the same protocol as described above was used. The culture plates were further incubated up to 3 days at 37°C. The MIC values were read and recorded.

[6] = system: M. abscessus clinical isolate MAB06; type: cell-based, M. abscessus subsp. abscessus; conditions: 3 days at 37°C
Method: as §1, §3

[7] = system: M. abscessus clinical isolate MAB16; test: In vitro antimicrobial susceptibility of potential AMPs, broth microdilution, 3 days; type: cell-based, M. abscessus subsp. massiliense; conditions: 3 days at 37°C
Method: as §1, §3

[8] = system: M. abscessus clinical isolate MAB09; test: microbe, parasite or virus in culture; type: cell-based, M. abscessus subsp. abscessus; conditions: MAB09
Method: as §2

[9] = system: M. abscessus clinical isolate MAB03; test: microbe, parasite or virus in culture; type: cell-based, M. abscessus subsp. abscessus; conditions: MAB03
Method: as §2

[10] = system: M. abscessus clinical isolate MAB11; test: microbe, parasite or virus in culture; type: cell-based, M. abscessus subsp. abscessus; conditions: MAB11
Method: as §2

[11] = system: M. abscessus clinical isolate MAB10; test: microbe, parasite or virus in culture; type: cell-based, M. abscessus subsp. abscessus; conditions: MAB10
Method: as §2

[12] = system: M. abscessus clinical isolate MAB07; test: microbe, parasite or virus in culture; type: cell-based, M. abscessus subsp. abscessus; conditions: MAB07
Method: as §2

[13] = system: M. abscessus clinical isolate MAB05; test: microbe, parasite or virus in culture; type: cell-based, M. abscessus subsp. abscessus; conditions: MAB05
Method: as §2

[14] = system: M. abscessus clinical isolate MAB01; test: microbe, parasite or virus in culture; type: cell-based, M. abscessus subsp. abscessus; conditions: MAB01; AMP + CLA; mean ± S.D., two independent experiments
Method: as §2

[15] = system: M. abscessus clinical isolate MAB02; test: microbe, parasite or virus in culture; type: cell-based, M. abscessus subsp. abscessus; conditions: MAB02
Method: as §2

[16] = AMP + CLA, mean ± S.D., two independent experiments

With `CC[C@H](C)[C@H](NC(=O)[C@H](CCCCN)NC(=O)[C@H](CCCNC(=N)N)NC(=O)CNC(=O)[C@H](CC(C)C)NC(=O)[C@H](CO)NC(=O)[C@H](CCCNC(=N)N)NC(=O)[C@H](CC(C)C)NC(=O)CNC(=O)CN)C(=O)N[C@@H](CC(C)C)C(=O)N[C@@H](CCCNC(=N)N)C(=O)N[C@@H](C)C(=O)N[C@@H](Cc1c[nH]c2ccccc12)C(=O)N[C@@H](CCCCN)C(=O)O` [S63] (H-GGLRSLGRKILRAWK-OH) the “MIC with ~99% killed within 24 h” value [1] was under 29.22 µM, the “Hemolytic activities (%hemolysis)” value ([2]; 6.25 µg/mL) was -0.53±0.75% and the “Hemolytic activities (%hemolysis)” value ([2]; 12.5 µg/mL) was 3.52±4.98%. The “Hemolytic activities (%hemolysis)” value ([2]; 25 µg/mL) was 5.81±3.73%, the “Hemolytic activities (%hemolysis)” value ([2]; 50 µg/mL) was 7.04±3.98% and the “Hemolytic activities (%hemolysis)” value ([2]; 100 µg/mL) was 8.27±3.73%. For the same molecule, the “Hemolytic activities (%hemolysis)” value ([2]; 200 µg/mL) was 9.68±2.74%, the “Hemolytic activities (%hemolysis)” value ([2]; 400 µg/mL) was 10.56±1.99% and the “hemolysis at the MICs level” value ([2]; at the MICs level, single figure of the abstract) was 1.50%. The FICI [3, 16] was 0.19±0.00, the “MIC, AMP alone” value ([3]; AMP alone) was over 400 mg/L and the FICI [4, 16] was 1.01±0.00. For the same molecule, the “MIC, AMP alone” value ([4]; AMP alone) was over 400 mg/L, the “Antimicrobial peptides against M. abscessus isolates, MIC value” (shortened to “Antimicrobial peptides”) [5] was over 400 mg/L and the “Antimicrobial peptides” value [6] was over 400 mg/L. For the same molecule, the “Antimicrobial peptides” value [7] was over 400 mg/L, the FICI [8, 16] was 0.52±0.00 and the “MIC, AMP alone” value ([8]; AMP alone) was over 400 mg/L. The FICI [9, 16] was 0.52±0.00, the “MIC, AMP alone” value ([9]; AMP alone) was 12.5 mg/L and the FICI [10, 16] was 0.76±0.35. For the same molecule, the “MIC, AMP alone” value ([10]; AMP alone) was over 400 mg/L, the FICI [11, 16] was 0.07±0.00 and the “MIC, AMP alone” value ([11]; AMP alone) was over 400 mg/L. The FICI [12, 16] was 0.04±0.01, the “MIC, AMP alone” value ([12]; AMP alone) was over 400 mg/L and the FICI [13, 16] was 1.01±0.00. For the same molecule, the “MIC, AMP alone” value ([13]; AMP alone) was over 400 mg/L, the FICI [14] was 0.63±0.17 and the FICI [15, 16] was 1.04±0.04. For the same molecule, the “MIC, AMP alone” value ([15]; AMP alone) was over 400 mg/L.
